Reference: patent publication US9963446B2, “Oxepan-2-yl-pyrazol-4-yl-heterocyclyl-carboxamide compounds and methods of use” (Genentech, Inc., priority 2014, dated 2018)

Columns and labels:
BaF3 PIM1 cells = test: In vitro cell proliferation, BaF3 transfected with PIM1; format: cell-based, murine; conditions: Mus musculus; BaF3 PIM1 line, incubated overnight; read-out: Prolif BaF3 PIM1 (IC50)
Description: (§1) BaF3 parental line was obtained from the DSMZ repository. BaF3 lines transfected with PIM1 or PIM2 were generated. Mouse IL-3 was purchased from R&D Systems. G418 was purchased from Clontech. Media for BaF3 parental line contained RPMI, 10% FBS, 2 mM L-Glutamine, 2 ng/mL mIL-3. Media for BaF3 PIM1 & 2 lines contained RPMI, 10% FBS, 2 mM L-Glutamine, […]. Media for MM1.S (multiple myeloma cells) line contained RPMI, 10% FBS, 2 mM L-Glutamine.
(§2) BaF3, a murine interleukin-3 dependent pro-B cell line, parental cells, BaF3 PIM1 cells, BaF3 PIM2 cells, and MM1.S (multiple myeloma) cells were seeded at 2 k/well, 5 k/well, 5 k/well, and 10 k/well respectively, in a 384-well plate, at 45 μL/well. Test compound was added at 5 μL/well. BaF3 cells (parental and transfected) were incubated overnight, while MM1.S cells were incubated for 72 hours at 37° C., 5% CO2. CELL TITER GLO® Reagent (Promega) was added at 50 μL/well, the plates were incubated for 30 minutes, and their luminescence read on an HT Analyst. IC50/EC50 values for the test compound were calculated.

[1] = system: MM1.S (multiple myeloma) cells; test: In vitro cell proliferation, MM1.S (CELL TITER GLO); format: cell-based; conditions: Homo sapiens, 72 hours, read-out: Prolif MM1S ATP (EC50)
Description: as §1, §2

BaF3 parental cells = test: In vitro cell proliferation, BaF3 parental line + IL3; format: cell-based, murine; conditions: Mus musculus; BaF3 parental line with mIL-3, incubated overnight; read-out: Prolif BaF3 + IL3 (IC50)
Description: as §1, §2

PIM1 = PIM1 (Homo sapiens (Human), UniProt P11309); test: Pim kinase binding activity (PIM1 LC3K Ki); format: biochemical; conditions: 20 pM PIM1, 10 μM ATP, 90 minutes
Chain of PIM1 (P11309 whole entry, the tested form may be a part): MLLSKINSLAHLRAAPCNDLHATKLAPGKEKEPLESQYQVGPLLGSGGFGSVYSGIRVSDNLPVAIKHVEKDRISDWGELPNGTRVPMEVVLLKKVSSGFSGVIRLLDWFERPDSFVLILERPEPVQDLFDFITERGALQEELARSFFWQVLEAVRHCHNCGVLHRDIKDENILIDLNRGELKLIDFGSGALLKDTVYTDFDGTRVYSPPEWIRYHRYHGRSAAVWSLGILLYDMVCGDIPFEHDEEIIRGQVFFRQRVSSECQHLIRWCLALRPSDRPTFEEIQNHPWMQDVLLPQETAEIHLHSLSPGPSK
Description: PIM-1, -2, and -3 enzymes were generated as fusion proteins expressed in bacteria and purified by IMAC column chromatography (Sun, X., Chiu, J. F., and He, Q. Y. (2005) Expert Rev. Proteomics, 2:649-657). A fluorescent-labeled Pim-specific peptide substrate, was custom synthesized by American Peptide Company (Sunnyvale, Calif.). Reaction Buffer contained 10 mM HEPES, pH 7.2, 10 mM MgCl2, 0.01% Tween 20, 2 mM DTT. Termination Buffer contained 190 mM HEPES, pH 7.2, 0.015% Brij-35, 0.2% Coating Reagent 3 (Caliper Life Sciences, Hopkinton, Mass.), 20 mM EDTA. Separation Buffer contained 100 mM HEPES, pH 7.2, 0.015% Brij-35, 0.1% Coating Reagent 3, 1:200 Coating Reagent 8 (Caliper Life Sciences, Hopkinton, Mass.), 10 mM EDTA and 5% DMSO.
PIM reactions were carried out in a final volume of 10 μL per well in a 384-well plate. A standard enzymatic reaction, initiated by the addition of 5 μL 2×ATP and test compound to 5 μL of 2× enzyme and FAM-peptide, contained 20 pM PIM1, 50 pM PIM2, or 55 pM PIM3, 1 μM FAM-peptide, and 10 μM ATP, in Reaction Buffer. After 90 minutes of incubation at room temperature, the phosphorylation reaction was stopped by the addition of 10 μL Termination Buffer. The product and substrate in each independent reaction were separated on a 12-sipper microfluidic chip (Caliper Life Sciences, Hopkinton, Mass.) run on a Caliper LC3000® (Caliper Life Sciences, Hopkinton, Mass.). The separation of product and substrate was optimized by choosing voltages and pressure using Caliper's Optimizer software (Hopkinton, Mass.). The separation conditions used a downstream voltage of −500V, an upstream voltage of −2150V, and a screening pressure of −1.2 psi. The product and substrate fluorophore were excited at 488 nm and detected at 530 nm. Substrate conversion was calculated from the electropherogram using HTS Well Analyzer software (Caliper Life Sciences, Hopkinton, Mass.). Ki values for the test compound were calculated. See Table 1 for representative PIM1 LC3K Ki in micromolar values of exemplary compounds.

SMILES	IC50 (BaF3 PIM1 cells)	EC50 [1]	Ki (PIM1)	IC50 (BaF3 parental cells)
Cc1cccnc1-c1nc(C(=O)Nc2cn[nH]c2[C@@H]2CC[C@@H](N)[C@H](F)CO2)cs1 [Example 128, N-(5-((2S,5R,6S)-5-amino-6-fluorooxepan-2-yl)-1H-pyrazol-4-yl)-2-(3-methylpyridin-2-yl)thiazole-4-carboxamide]	–	3000 nM	0.777 nM	–
N[C@@H]1CC[C@@H](c2[nH]ncc2NC(=O)c2csc(-c3c(F)cccc3F)n2)OC[C@H]1F [Example 129, N-(5-((2S,5R,6S)-5-amino-6-fluorooxepan-2-yl)-1H-pyrazol-4-yl)-2-(2,6-difluorophenyl)thiazole-4-carboxamide]	–	7300 nM	0.958 nM	–
C[C@@H]1O[C@H](c2c(NC(=O)c3csc(-c4c(F)cccc4F)n3)cnn2C)CC[C@@H](N)[C@H]1F [Example 121, N-(5-((2S,5R,6R,7S)-5-amino-6-fluoro-7-methyloxepan-2-yl)-1-methyl-1H-pyrazol-4-yl)-2-(2,6-difluorophenyl)thiazole-4-carboxamide]	12.2 nM	376 nM	0.0049 nM	14200 nM
Cc1cccnc1-c1nc(C(=O)Nc2cn[nH]c2[C@H]2CC[C@H](N)[C@@H](F)CO2)cs1 [Example 127, N-(5-((2R,5S,6R)-5-amino-6-fluorooxepan-2-yl)-1H-pyrazol-4-yl)-2-(3-methylpyridin-2-yl)thiazole-4-carboxamide]	–	10800 nM	1.1 nM	–
Cn1ncc(NC(=O)c2csc(-c3c(O)cccc3F)n2)c1[C@@H]1CC[C@@H](N)[C@H](F)CO1 [Example 102, N-[5-[(2S,5R,6S)-5-amino-6-fluoro-oxepan-2-yl]-1-methyl-pyrazol-4-yl]-2-(2-fluoro-6-hydroxy-phenyl)thiazole-4-carboxamide]	164 nM	702 nM	0.121 nM	9100 nM
C[C@@H](F)c1cc(F)c(-c2nc(C(=O)Nc3cnn(C)c3[C@@H]3CC[C@@H](N)[C@H](F)CO3)cs2)c(F)c1 [Example 106, N-(5-((2S,5R,6S)-5-amino-6-fluorooxepan-2-yl)-1-methyl-1H-pyrazol-4-yl)-2-(2,6-difluoro-4-((R)-1-fluoroethyl)phenyl)thiazole-4-carboxamide]	29.9 nM	235 nM	0.015 nM	8600 nM
Cn1ncc(NC(=O)c2csc(-c3c(F)cc4c(c3F)OCC[C@@H]4O)n2)c1[C@@H]1CC[C@@H](N)[C@H](F)CO1 [Example 111, N-(5-((2S,5R,6S)-5-amino-6-fluorooxepan-2-yl)-1-methyl-1H-pyrazol-4-yl)-2-((S)-6,8-difluoro-4-hydroxychroman-7-yl)thiazole-4-carboxamide]	96.2 nM	1500 nM	–	> 25000 nM
COc1cc(F)c(-c2nc(C(=O)Nc3cnn(C)c3[C@@H]3CC[C@@H](N)[C@H](F)CO3)cs2)cc1Cl [Example 108, N-[5-[(2S,5R,6S)-5-amino-6-fluoro-oxepan-2-yl]-1-methyl-pyrazol-4-yl]-2-(5-chloro-2-fluoro-4-methoxy-phenyl)thiazole-4-carboxamide]	80.5 nM	490 nM	0.042 nM	1900 nM
N[C@H]1CC[C@H](c2[nH]ncc2NC(=O)c2csc(-c3c(F)cccc3F)n2)OC[C@@H]1F [Example 126, N-(5-((2R,5S,6R)-5-amino-6-fluorooxepan-2-yl)-1H-pyrazol-4-yl)-2-(2,6-difluorophenyl)thiazole-4-carboxamide]	–	8000 nM	1.48 nM	–
C[C@H](F)c1cc(F)c(-c2nc(C(=O)Nc3cnn(C)c3[C@@H]3CC[C@@H](N)[C@H](F)CO3)cs2)c(F)c1 [Example 101, N-(5-((2S,5R,6S)-5-amino-6-fluorooxepan-2-yl)-1-methyl-1H-pyrazol-4-yl)-2-(2,6-difluoro-4-((S)-1-fluoroethyl)phenyl)thiazole-4-carboxamide]	24.8 nM	441 nM	0.002 nM	7100 nM
N[C@H]1CC[C@H](c2c(NC(=O)c3csc(-c4c(F)cccc4F)n3)cnn2C2CC2)OC[C@@H]1F [Example 103, N-[5-[(2R,5S,6R)-5-amino-6-fluoro-oxepan-2-yl]-1-cyclopropyl-pyrazol-4-yl]-2-(2,6-difluorophenyl)thiazole-4-carboxamide]	145 nM	731 nM	0.18 nM	12000 nM
Cn1ncc(NC(=O)c2csc(-c3cn4ccncc4n3)n2)c1[C@@H]1CC[C@@H](N)[C@H](F)CO1 [Example 125, N-(5-((2S,5R,6S)-5-amino-6-fluorooxepan-2-yl)-1-methyl-1H-pyrazol-4-yl)-2-(imidazo[1,2-a]pyrazin-2-yl)thiazole-4-carboxamide]	–	> 25000 nM	32.8 nM	–
N[C@H]1CC[C@H](c2c(NC(=O)c3csc(-c4c(F)cccc4F)n3)cnn2CC(F)F)OC[C@@H]1F [Example 116, N-(5-((2R,5S,6R)-5-amino-6-fluorooxepan-2-yl)-1-(2,2-difluoroethyl)-1H-pyrazol-4-yl)-2-(2,6-difluorophenyl)thiazole-4-carboxamide]	2750 nM	2700 nM	–	10500 nM

Stronger by EC50 [1], values ahead:

IC50 (BaF3 PIM1 cells)	EC50 [1]	Ki (PIM1)	SMILES	IC50 (BaF3 parental cells)
563 nM	228 nM	1.79 nM	Cn1ncc(NC(=O)c2csc(-c3cccc4cccnc34)n2)c1[C@@H]1CC[C@@H](N)[C@H](F)CO1 [Example 120, N-[5-[(2S,5R,6S)-5-amino-6-fluoro-oxepan-2-yl]-1-methyl-pyrazol-4-yl]-2-(8-quinolyl)thiazole-4-carboxamide]	2300 nM
118 nM	202 nM	0.004 nM	Cn1ncc(NC(=O)c2csc(-c3c(F)cc4c(c3F)OCC[C@H]4O)n2)c1[C@@H]1CC[C@@H](N)[C@H](F)CO1 [Example 112, N-(5-((2S,5R,6S)-5-amino-6-fluorooxepan-2-yl)-1-methyl-1H-pyrazol-4-yl)-2-((R)-6,8-difluoro-4-hydroxychroman-7-yl)thiazole-4-carboxamide]	> 25000 nM
29.3 nM	181 nM	–	N[C@@H]1CC[C@@H](c2c(NC(=O)c3csc(-c4c(F)cccc4F)n3)cnn2CC(F)F)OC[C@H]1F [Example 115, N-(5-((2S,5R,6S)-5-amino-6-fluorooxepan-2-yl)-1-(2,2-difluoroethyl)-1H-pyrazol-4-yl)-2-(2,6-difluorophenyl)thiazole-4-carboxamide]	5500 nM
63.8 nM	148 nM	0.018 nM	Cc1cnc(-c2nc(C(=O)Nc3cnn(C)c3[C@@H]3CC[C@@H](N)[C@H](F)CO3)cs2)cn1 [Example 110, N-[5-[(2S,5R,6S)-5-amino-6-fluoro-oxepan-2-yl]-1-methyl-pyrazol-4-yl]-2-(5-methylpyrazin-2-yl)thiazole-4-carboxamide]	9200 nM
8.95 nM	67.3 nM	0.006 nM	CO[C@H]1[C@H](N)CC[C@@H](c2c(NC(=O)c3csc(-c4c(F)cccc4F)n3)cnn2C)O[C@@H]1C [Example 118, N-(5-((2S,5R,6S,7R)-5-amino-6-methoxy-7-methyloxepan-2-yl)-1-methyl-1H-pyrazol-4-yl)-2-(2,6-difluorophenyl)thiazole-4-carboxamide]	2500 nM
–	54 nM	0.051 nM	C[C@@H]1O[C@H](c2c(NC(=O)c3csc(-c4c(F)cccc4F)n3)cnn2C)CC[C@@H](N)[C@@H]1F [Example 124, N-[5-[(2S,5R,6S,7S)-5-amino-6-fluoro-7-methyl-oxepan-2-yl]-1-methyl-pyrazol-4-yl]-2-(2,6-difluorophenyl)thiazole-4-carboxamide]	–
